Reference: US20260250247A1, “NOVEL INDOLINE DERIVATIVE AND USE THEREOF” (CK REGEON INC., priority 2023, published 2026)

How the values were obtained:
[1] = target: CXXC5-Dvl interaction (PDZ domain of Dvl (dishevelled) protein / PTD-DBM-FITC); test: CXXC5-Dvl binding inhibition, competition of PTD-DBM-FITC on plate-bound Dvl PDZ domain; conditions: purified Dvl PDZ domain 5 μg/mL, 10 μM PTD-DBM-FITC, compounds 0.001-100 μM, FITC fluorescence
Protocol: 5 μg/mL of the purified PDZ domain ofDvl (dishevelled) protein was attached to the bottom of a 96-well black immunoplate and left in a chamber at 4° C. for one day. The next day, each well was washed with PBS and 10 μM PTD-DBM-FITC was added. After incubation at room temperature for 3 hours, each well was washed with PBS. Each well was treated with the indoline derivatives at various concentrations (100, 10, 1, 0.1, 0.01, and 0.001 μM) in 100 μL of PBS. After washing with a buffer, fluorescence was measured by FITC using a microplate reader. A competition binding curve showing the degree of CXXC5-Dvl PPI inhibition was constructed using the GraphPad Prism software, and the IC50 value was calculated. […] CK090), and the intermediate compound 5-cyanoindirubin as controls.

[2] = system: 3T3-L1 pre-adipocytes; test: Inhibition of adipocyte differentiation and lipid accumulation, Oil Red O; type: cell-based; conditions: Mus musculus, 192 h; 3T3-L1, compound 1 μM, MDI-induced differentiation for 8 days, Oil Red O eluted, absorbance 544 nm; read-out: lipid accumulation rate
Protocol: 3T3-L1 cells were seeded in a 6-well plate at a density of […] cells per well. The cells were grown to 100% confluency in Dulbecco's modified Eagle's medium (DMEM) supplemented with 10% bovine calf serum (BCS; GIBCO). Two days after reaching 100% confluency, differentiation was induced with or without treatment with the indoline compound at a concentration of 1 μM in DMEM containing 10% fetal bovine serum (FBS; GIBCO) and MDI (520 μM methylisobutylxanthine (IBMX; Sigma-Aldrich), 1 μM dexamethasone (Sigma-Aldrich), and 5 μM insulin (GIBCO)). On day 3, the medium was replaced with DMEM containing 10% FBS and 5 μM insulin with or without the indoline compound, and then with a fresh identical medium every 2 days. After differentiation for 8 days, the culture medium was removed, and the cells were washed with PBS and then fixed with 10% formaldehyde for 1 hour. After removing the 10% formaldehyde, the cells were washed thoroughly with distilled water. After that, 60% isopropanol was added and immediately then removed. After washing with distilled water, lipid droplets were stained with an Oil Red O dye solution for 20 minutes and then washed with distilled water. The cells were counterstained with Mayer's hematoxylin. Oil Red O images were visualized using a bright-field microscope (Nikon TE-2000U). To quantify the accumulated lipids, Oil Red O was eluted by adding isopropanol, and absorbance was measured spectrophotometrically at 544 nm using a multi-plate reader.
As A3051 (KY19382) and A3334, self-developed and synthesized materials were used. As BIO, or GSK 3 Inhibitor IX, also known as 6-bromoindirubin-3′-oxime, HY-10580 was purchased commercially.
In FIG. 2, the undifferentiated group (Un Diff) refers to undifferentiated adipocytes, or preadipocytes that had not been induced to differentiate, and the differentiated group (Diff) refers to fully differentiated adipocytes.

[3] = system: lipid droplets / PPARγ in liver tissue; test: Liver Oil Red O staining and PPARγ immunohistochemistry in MASH mice; type: in vivo, C57BL/6N mice; conditions: 25 mg/kg/day orally for 4 weeks
Protocol: (§1) Five-week-old wild-type male C57BL/6N mice were purchased from Orient Bio Co., Ltd. They were allowed to acclimate to the laboratory environment for one week. Mice weighing 18-20 g on average were used in the experiment. To ensure ethical and scientific validity and efficient management of animal experiments, the experiment was conducted with the approval of the Institutional Review Board (IACUC-A-202205-1472-01) of Severance Hospital, Yonsei University College of Medicine.
(§2) The mice were divided into a normal group (NCD) and a high-fat diet group (HFD). The normal group (NCD) was fed a normal chow diet (NCD, Teklad Global 18% protein rodent diet), and the high-fat diet group (HFD) was fed a high-fat diet (HFD, D12492) in which fat accounted for 60% of the total calories, for 8 weeks.
(§3) Mice induced with metabolic dysfunction-associated steatohepatitis (MASH) (hereinafter, referred to as MASH or MASH group) were prepared by administering CCl4 intraperitoneally twice a week for 4 weeks after feeding the high-fat diet (HFD) for 8 weeks. The […] was diluted with corn oil at a ratio of 1:19 and injected at a dosage of 2 mL/kg. The normal group (NOD) was administered the same volume of physiological saline.
(§4) The animals were divided into 7 groups, each with 10 animals.
It was investigated whether the accumulation of triglycerides in the liver is suppressed effectively. For this purpose, liver tissue was extracted from each group, and it was prepared into 10-μm thick cryosections, which were then stained with Oil Red O. Details are as follows. After preparing the 7 groups, the animals were euthanized using carbon dioxide and the liver tissues were extracted. A certain area of the extracted liver tissue was cryosectioned to 10 μm thickness, fixed in 4% neutral paraformaldehyde for 20 minutes at room temperature, and washed with 70% isopropanol (Duksan Pure Chemicals). After staining with the Oil Red O (Sigma-Aldrich) reagent for 20 minutes, the sections were washed thoroughly three times with distilled water. The tissue was counterstained with Mayer's hematoxylin. Then, Oil Red O staining images were visualized using a bright-field microscope (Nikon TE-2000U).
After preparing the 7 groups, the animals were sacrificed using carbon dioxide and the liver tissues were extracted. The extracted tissues were fixed in 4% neutral paraformaldehyde and embedded in paraffin to prepare sections. The paraffin sections were cut to 4-μm thickness, deparaffinized, and then rehydrated. For antigen exposure, slides were autoclaved in a 10 mM sodium citrate buffer (pH 6.0). To block endogenous peroxidase activity prior to peroxidase IHC analysis, the tissues were incubated with 0.3% H2O2 for 10 minutes. The incubated sections were treated with phosphate-buffered saline (PBS) containing 10% NGS and 0.3% Tween-20 for 1 hour at room temperature, treated with primary antibodies of anti-PPARγ (1:50; Abcam), and incubated overnight at 4° C.
The sections treated with the primary antibodies were washed with PBS and incubated with biotinylated anti-mouse (1:400; Dako) or anti-rabbit (1:400; Dako) secondary antibodies for 1 hour at room temperature. The sections incubated with the secondary antibodies were stained with 3,3′-diaminobenzidine (DAB; Dako) for 3-7 minutes and then counterstained with Mayer's haematoxylin. All incubations were performed in a humid chamber. After the staining, images were taken and analyzed using a bright-field microscope (Nikon TE-2000U).

[4] = system: mice induced with metabolic dysfunction-associated steatohepatitis (MASH); test: Liver fibrosis score from collagen staining (Picrosirius red) in MASH mice; type: in vivo, C57BL/6N mice; conditions: 25 mg/kg/day orally for 4 weeks, mean±SD, normal group 0, MASH group 3.11
Protocol: as §1, §2, §3, §4
After preparing the 7 groups, the animals were euthanized using carbon dioxide and the liver tissues were extracted. The extracted tissues were fixed in 4% neutral paraformaldehyde and embedded in paraffin to prepare sections. The paraffin sections were cut to 4-μm thickness, deparaffinized, and then rehydrated. The hydrated sections were stained with a Weigert's iron hematoxylin solution for 8 minutes and then with Picrosirius red for 1 hour. Collagen fibers were stained red and nuclei were stained blue. The sections were photographed using a bright-field microscope (Nikon TE-2000U).
The main mechanism of nonalcoholic fatty liver disease is the induction of hepatic stellate cell activation, which induces collagen production and leads to liver fibrosis due to collagen accumulation. From the result of collagen staining (Picrosirius red) for observing the total amount of collagen deposition in Test Example 3-6, the liver fibrosis score was analyzed. Stages 2 to 3 were diagnosed as nonalcoholic fatty liver disease (MASH) (M. Brunt et al., 2005).
All quantitative data are presented as mean±standard deviation (SD). In each experiment, all measurements were made at least three times, and data were analyzed using the two-tailed, unpaired Student's t test. P values of <0.05 were considered statistically significant.

| SMILES | IC50 [1] | activity at 1 µM [2] | lipid droplet formation and lipid infiltration in liver, Oil Red O staining [3] | Degree of liver fibrosis (fibrosis score) [4] | Degree of liver fibrosis (fibrosis score) ([4]; listed as CK004) |
| --- | --- | --- | --- | --- | --- |
| N#Cc1ccc2c(c1)/C(=C1/Nc3ccccc3/C1=N\OCCN1CCSCC1)C(=O)N2 [Example 3, (2Z,3E)-2′-oxo-3-((2-thiomorpholinoethoxy)imino)-[2,3′-biindolinylidene]-5′-carbonitrile] | 5.54 nM | 28.9% | a significant effect of inhibiting lipid infiltration at a level similar to that of the normal group (NCD) | 1.56 | – |
| CN1CCN(CCO/N=C2/C(=C3/C(=O)Nc4ccc(C#N)cc43)Nc3ccccc32)CC1 [Example 4, (2Z,3E)-3-((2-(4-methylpiperazin-1-yl)ethoxy)imino)-2′-oxo-[2,3′-biindolinylidene]-5′-carbonitrile] | 20.9 nM | 26% | a significant effect of inhibiting lipid infiltration at a level similar to that of the normal group (NCD) | 0.67 | 0.67 |
